Read-outs that look alike come from different tables or passages of the source.

One data set has as its system PTPRZ1 M1902F, M1902H. Briefly: Inhibitor sensitivity of point mutants PTPRZ1 M1902F and M1902H. Format: biochemical, human. Particulars: 10 µM, vs wild-type PTPRZ1. The text has this: (§1) Figure 5 Structural basis for PTPRZ inhibition of NAZ2329. (A) An enlarged view of the X-ray structure of human PTPRZ1-D1 complexed with NAZ2329 (PDB ID: 5H08) (left), X-ray structure of the apo (open) form of PTPRZ1-D1 (PDB ID: 5AWX, ref. [6], middle) and a computer-modeled structure of the closed form of PTPRZ1-D1 complexed with a competitive inhibitor, SCB4380 (ref. [6], right), are shown. PTPRZ1-D1 is shown as a gray surface representation, in which Cys1933 at the active site and Val-1911 at the bottom of the allosteric pocket are indicated in red and yellow, respectively. Inhibitors are colored according to the atomic species in a stick figure representation as follows: oxygen (red), nitrogen (blue), sulfur (yellow), and carbon (green). The bottom figures show the conformation of the WPD loop (orange) as cartoon representations, in which Asp1901 and Cys1933 are indicated by orange and red spheres, respectively. Side chains of Arg1939 at the active site, Met1902 in the WPD loop, and Val-1911 at the bottom of the allosteric binding area are also shown in the stick representation. (B) LigPlot representation of the NAZ2329 interaction with PTPRZ1-D1. The predicted hydrogen bonds (broken black lines) and residues (red spoked arcs) involved in the hydrophobic interaction are shown. […]

Data set [1] can be described thus: Plasma and brain levels after intraperitoneal injection. Format: in vivo, C57BL6 mice. Particulars: for concentration at 1 h: mouse, ip, C57BL6 mice, 1 h after i.p. 30 mg/kg, two female mice. The text has this: NAZ2329 successfully suppresses the cell proliferation and cell migration of the differentiated glioblastoma cells, as well as cell sphere formation (Figs 7 to 8). NAZ2329 is the first cell-permeable R5 RPTP inhibitor. […] Nevertheless, NAZ2329 is a potentially valuable lead therapeutic for the development of drugs that function through allosteric inhibitory mechanisms against PTPs, such as PTPRZ and PTPRG.

The next data set concerns the target T1, PTPRG V1038F (Homo sapiens, UniProt P23470, V1038F).
T1 construct: Point mutants of the PTPRZ1-ICR, PTPRG-ICR, and PTPN1 catalytic domain were generated; GST (N); made in house
Briefly: Inhibitor sensitivity of point mutant PTPRG V1038F. Format: biochemical. Particulars: 10 µM, vs wild-type PTPRG.
Source text: as §1

T1 sequence (P23470 763-1445 V1038F limits assumed): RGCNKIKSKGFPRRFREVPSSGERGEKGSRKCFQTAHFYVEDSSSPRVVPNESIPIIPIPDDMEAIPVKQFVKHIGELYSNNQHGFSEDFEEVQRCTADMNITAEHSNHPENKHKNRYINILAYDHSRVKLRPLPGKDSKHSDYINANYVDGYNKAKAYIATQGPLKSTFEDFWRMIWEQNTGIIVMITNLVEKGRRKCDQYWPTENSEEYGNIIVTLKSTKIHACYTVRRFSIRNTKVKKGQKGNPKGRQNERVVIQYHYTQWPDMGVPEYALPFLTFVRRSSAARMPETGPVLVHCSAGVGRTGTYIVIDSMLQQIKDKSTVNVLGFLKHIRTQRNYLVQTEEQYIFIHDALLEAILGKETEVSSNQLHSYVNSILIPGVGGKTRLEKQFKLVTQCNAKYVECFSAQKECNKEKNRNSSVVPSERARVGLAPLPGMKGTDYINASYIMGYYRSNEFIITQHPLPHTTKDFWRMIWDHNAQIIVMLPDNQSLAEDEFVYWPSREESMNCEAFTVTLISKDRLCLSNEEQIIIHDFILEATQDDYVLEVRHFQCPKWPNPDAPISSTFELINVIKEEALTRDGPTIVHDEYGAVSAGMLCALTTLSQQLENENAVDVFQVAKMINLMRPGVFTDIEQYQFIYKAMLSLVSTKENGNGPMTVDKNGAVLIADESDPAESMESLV

Regarding `CCOc1ccc(C(F)(F)F)cc1CSc1ccsc1C(=O)NS(=O)(=O)c1ccccc1` [NAZ2329], in the data set on PTPRZ1 M1902F, M1902H, the “effect of M1902F / M1902H substitution on sensitivity to inhibitor” value was “did not affect the sensitivity to the inhibitor”. Besides, the BBB permeability result in data set [1] (from plasma and brain levels 1 h after i.p. 30 mg/kg) is recorded as “poor BBB permeability”. Further, the concentration at 1 h in data set [1] (brain, read-out: average level in brain) was determined as 300 ng/g; in data set [1] (plasma, read-out: average level in plasma), 22 µg/mL. For the same compound, the “effect of V1038F mutation on sensitivity to inhibitor” value at PTPRG V1038F was “resulted in resistance”.

The values above are taken from article PMC5514153, “Targeting PTPRZ inhibits stem cell-like properties and tumorigenicity in glioblastoma cells” (Scientific Reports, 2017).
